# Legend:
# [1] = system: ERα receptor; test: PRα induction assay in MCF7 cells (ERα agonism); type: cell-based; details: Homo sapiens, 24 hours, agonist mode, read-out: Relative IC50 (μM), PRα induction
# Protocol: The purpose of the following PRα induction assay is to determine whether a test compound has agonistic activity against ERα receptor (an agonist would be expected to activate the receptor.)
# Culture MCF7 (purchased from ATCC HTB-22) in DMEM media supplemented with 10% FBS, 0.01 mg/mL human insulin 1 and 1% penicillin/streptomycin antibiotics and plate the cells (prior to becoming 70% confluent) in 384-well flat-bottom plates at a density of 4,000 cells per well in 20 μL volume in DMEM phenol red free media containing 10% FBS (charcoal stripped). Incubate the cells overnight in a cell culture incubator (5% CO2, 95% relative humidity at 37° C.) and allow the cells to attach to the plate. The following day, dose the cells with test compound. Use an Echo 555 acoustic dispenser to prepare compound serial dilutions (1:3) in a range from 6 μM to 0.0003 μM. […]
# The following day, wash cells with PBS 0.05% TWEEN® 20 (2×20 μL) and incubate with secondary antibody (20 μL/well) (1:1000 dilution, Goat anti-rabbit IgM ALEXA FLUOR™ 488) in PBS 1% BSA for 105 minutes at room temperature. […] Scan plates with ACUMEN EXPLORER™ [Laser-scanning fluorescence microplate cytometer manufactured by TTP LABTECH LTD] to measure progesterone receptor alpha. […]
# [2] = system: MCF7 ESR1 wild type; test: Cell proliferation assay in MCF7; type: cell-based; details: Homo sapiens, seven days, n=2, read-out: Relative IC50 (nM), cell proliferation
# From the text: The purpose of the following cell proliferation assays generally is to detect whether a test compound has effects on cell proliferation, cell viability, and cytotoxicity in response to treatment in cell culture experiments. Cell proliferation is monitored by monitoring the number of cells over time and the […] assay used allows continuous measurement of cell viability over time.
# Seed MCF7 (purchased from ATCC HTB-22) cells at a density of 2,000 cells per well in DMEM phenol red free media 10% FBS (20 μL volume) (charcoal stripped) into a clear bottom 384-well cell culture plate. […] Scan the plates with ACUMEN EXPLORER™ [Laser-scanning fluorescence microplate cytometer manufactured by TTP LABTECH LTD]. The MCF-7 cell line grows forming aggregates, cell number as number of objects may not be able to be used as readout; so the cell number may be evaluated through estimated number of cells (calculated through the area parameter (ratio of total area of the total cells population (a designated range of peak intensity of FL-1 (PI) and the mean area of the single cells population (defined by perimeter)). Determine the IC50 by curve fitting to a four parameter logistic for each output using GENE DATA™.
# [3] = system: MCF7 xenograft tumor; test: In vivo tumor growth inhibition study in MCF7 xenograft tumor implanted in mice; details: MCF7 breast cancer xenograft, 30 mg/kg QD, oral gavage
# Protocol: The purpose of the following xenograft tumor growth inhibition assay is to measure reduction in tumor volume in response to test compound administration.
# Twenty-four hours prior to implantation of MCF7 cells, implant estrogen pellets (0.18 mg/pellet, […], 90-day release, Innovative Research) subcutaneously.
smiles,measurement,setting,value
"O=C(c1ccc(OCCN2CC(CF)C2)cc1)c1c(-c2ccc(C(F)(F)F)cc2F)cnc2cc(O)ccc12 [Example 1, (4-{2-[3-(Fluoromethyl)azetidin-1-yl]ethoxy}phenyl){3-[2-fluoro-4-(trifluoromethyl)phenyl]-7-hydroxyquinolin-4-yl}methanone]",IC50,[1],> 2 µM
same,IC50,[2],9.24 ± 1.74 nM
same,Delta T/C % or Regression %,[3],−36%

# Source: patent publication US12128040B2, “Selective estrogen receptor degraders” (Eli Lilly and Company, priority 2018, dated 2024)
